The results in this text go back to article PMC3177992 (Chemical research in toxicology, 2011).

Molecules are shown by their SMILES.

Format in all cases: in vitro ADME
One data set addresses T1, UGT1A1 (Homo sapiens, UniProt P22309).
T1 sequence (P22309 26-533): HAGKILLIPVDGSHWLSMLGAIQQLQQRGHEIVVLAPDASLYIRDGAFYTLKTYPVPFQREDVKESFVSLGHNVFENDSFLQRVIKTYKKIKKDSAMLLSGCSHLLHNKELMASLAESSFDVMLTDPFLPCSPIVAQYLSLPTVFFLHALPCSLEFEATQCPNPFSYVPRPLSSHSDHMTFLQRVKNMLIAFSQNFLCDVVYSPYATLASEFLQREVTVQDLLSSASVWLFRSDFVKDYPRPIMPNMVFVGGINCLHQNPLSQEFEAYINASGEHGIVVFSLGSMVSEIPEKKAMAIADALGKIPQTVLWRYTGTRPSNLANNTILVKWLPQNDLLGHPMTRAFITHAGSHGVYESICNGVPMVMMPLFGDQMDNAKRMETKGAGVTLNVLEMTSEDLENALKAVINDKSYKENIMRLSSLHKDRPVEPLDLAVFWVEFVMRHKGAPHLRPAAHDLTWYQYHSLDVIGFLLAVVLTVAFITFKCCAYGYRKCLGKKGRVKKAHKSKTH
The experiment in a line: Glucuronidation assay, UGT1A1-over-expressing HEK293 cell homogenate.

The next data set concerns the target T2, UGT1A8 (Homo sapiens, UniProt Q9HAW9).
T2 sequence (Q9HAW9 26-530): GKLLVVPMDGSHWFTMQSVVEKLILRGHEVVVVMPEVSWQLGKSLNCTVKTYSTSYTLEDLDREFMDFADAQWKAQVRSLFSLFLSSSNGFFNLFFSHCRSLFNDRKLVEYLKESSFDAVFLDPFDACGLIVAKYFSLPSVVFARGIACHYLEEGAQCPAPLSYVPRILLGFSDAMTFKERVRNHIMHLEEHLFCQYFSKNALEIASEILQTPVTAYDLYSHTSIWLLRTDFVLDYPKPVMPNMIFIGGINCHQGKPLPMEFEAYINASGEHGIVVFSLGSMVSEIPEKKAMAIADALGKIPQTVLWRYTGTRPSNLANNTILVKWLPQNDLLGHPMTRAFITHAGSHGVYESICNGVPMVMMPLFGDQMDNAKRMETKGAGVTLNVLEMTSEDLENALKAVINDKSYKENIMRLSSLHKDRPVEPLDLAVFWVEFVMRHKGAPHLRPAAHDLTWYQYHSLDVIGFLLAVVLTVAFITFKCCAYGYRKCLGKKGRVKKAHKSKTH
The experiment in a line: Glucuronidation assay, UGT1A8-over-expressing HEK293 cell homogenate.

In the next data set the target is T3, UGT1A10 (Homo sapiens, UniProt Q9HAW8).
T3 sequence (Q9HAW8 26-530): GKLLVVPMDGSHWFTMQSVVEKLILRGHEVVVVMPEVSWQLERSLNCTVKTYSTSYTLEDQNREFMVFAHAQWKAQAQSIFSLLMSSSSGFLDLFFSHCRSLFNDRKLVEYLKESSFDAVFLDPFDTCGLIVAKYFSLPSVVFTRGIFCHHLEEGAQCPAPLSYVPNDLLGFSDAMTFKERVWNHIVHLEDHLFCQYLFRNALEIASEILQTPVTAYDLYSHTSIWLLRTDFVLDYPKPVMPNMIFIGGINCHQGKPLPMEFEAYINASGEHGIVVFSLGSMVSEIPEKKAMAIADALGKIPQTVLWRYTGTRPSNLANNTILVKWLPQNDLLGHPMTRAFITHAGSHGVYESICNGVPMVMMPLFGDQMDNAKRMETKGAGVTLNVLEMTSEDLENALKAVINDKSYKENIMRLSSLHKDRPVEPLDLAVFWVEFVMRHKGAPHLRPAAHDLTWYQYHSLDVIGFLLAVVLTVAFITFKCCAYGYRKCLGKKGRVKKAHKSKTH
The experiment in a line: Glucuronidation assay, UGT1A10-over-expressing HEK293 cell homogenate.

A further data set concerns the target T4, UGT1A9 (Homo sapiens, UniProt O60656).
T4 sequence (O60656 26-530): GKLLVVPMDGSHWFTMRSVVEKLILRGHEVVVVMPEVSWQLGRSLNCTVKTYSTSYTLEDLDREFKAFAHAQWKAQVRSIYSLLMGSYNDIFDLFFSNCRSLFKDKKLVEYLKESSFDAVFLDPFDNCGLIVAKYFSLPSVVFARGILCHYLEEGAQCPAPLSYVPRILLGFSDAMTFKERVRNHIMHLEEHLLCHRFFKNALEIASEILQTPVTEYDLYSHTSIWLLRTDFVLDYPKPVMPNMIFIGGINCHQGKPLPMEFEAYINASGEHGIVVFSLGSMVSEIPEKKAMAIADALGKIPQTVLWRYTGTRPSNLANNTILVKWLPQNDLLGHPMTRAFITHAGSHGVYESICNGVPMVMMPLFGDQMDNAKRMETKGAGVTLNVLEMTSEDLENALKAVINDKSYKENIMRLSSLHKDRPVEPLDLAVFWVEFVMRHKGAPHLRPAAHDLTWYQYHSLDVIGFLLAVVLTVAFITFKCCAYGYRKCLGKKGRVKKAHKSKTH
Briefly: Glucuronidation assay, UGT1A9-over-expressing HEK293 cell homogenate.

The next data set deals with T5, UGT2B7 (Homo sapiens, UniProt P16662).
T5 sequence (P16662 24-529): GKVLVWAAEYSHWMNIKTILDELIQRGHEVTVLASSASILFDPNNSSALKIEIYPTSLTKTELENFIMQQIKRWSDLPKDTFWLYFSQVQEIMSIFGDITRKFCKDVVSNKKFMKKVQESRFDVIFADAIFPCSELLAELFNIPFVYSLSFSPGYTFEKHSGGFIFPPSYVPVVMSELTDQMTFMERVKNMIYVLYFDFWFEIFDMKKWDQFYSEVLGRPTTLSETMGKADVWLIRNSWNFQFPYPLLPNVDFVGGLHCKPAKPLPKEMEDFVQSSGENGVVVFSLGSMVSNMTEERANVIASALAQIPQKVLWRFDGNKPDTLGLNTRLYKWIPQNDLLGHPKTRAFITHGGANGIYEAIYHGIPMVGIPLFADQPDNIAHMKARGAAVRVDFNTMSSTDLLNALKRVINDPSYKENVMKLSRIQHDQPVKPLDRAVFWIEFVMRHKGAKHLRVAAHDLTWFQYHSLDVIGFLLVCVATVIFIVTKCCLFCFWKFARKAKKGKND
The experiment in a line: Glucuronidation assay, UGT2B7-over-expressing HEK293 cell homogenate.

Another data set has as its target T6, UGT1A7 (Homo sapiens, UniProt Q9HAW7).
T6 sequence (Q9HAW7 26-530): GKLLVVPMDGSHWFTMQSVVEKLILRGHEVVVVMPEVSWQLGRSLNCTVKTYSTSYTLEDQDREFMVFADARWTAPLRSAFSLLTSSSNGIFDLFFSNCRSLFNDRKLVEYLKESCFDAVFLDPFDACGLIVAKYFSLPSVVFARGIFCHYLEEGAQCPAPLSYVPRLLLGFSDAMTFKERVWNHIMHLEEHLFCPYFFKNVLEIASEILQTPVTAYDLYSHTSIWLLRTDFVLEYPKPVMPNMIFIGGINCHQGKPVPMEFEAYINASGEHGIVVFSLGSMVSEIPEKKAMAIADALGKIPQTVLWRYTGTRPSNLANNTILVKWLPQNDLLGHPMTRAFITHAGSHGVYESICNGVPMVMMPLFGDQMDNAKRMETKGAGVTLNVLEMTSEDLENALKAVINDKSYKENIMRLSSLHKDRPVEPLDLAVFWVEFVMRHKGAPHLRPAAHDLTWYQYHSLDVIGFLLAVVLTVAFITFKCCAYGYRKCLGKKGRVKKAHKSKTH
Briefly: Glucuronidation assay, UGT1A7-over-expressing HEK293 cell homogenate.

Where [1] appears, read: glucuronide formation from the respective diol enantiomer.

The term Km denotes the concentration of substrate that gives half-maximal velocity. Usually kcat/Km stands for the second-order rate constant that governs catalysis at low substrate concentration. With `O=C(O)[C@H]1O[C@@H](O[C@H]2c3cc4ccc5cccc6c7ccccc7c(c3C=C[C@@H]2O)c4c56)[C@H](O)[C@@H](O)[C@@H]1O` (relative stereo) [(+)-DB[a,l]P-11-Gluc, DB[a,l]P-(+)-trans-11-Gluc,12-ol], the Michaelis-Menten constant (Km) is 76 ± 21 µM at UGT1A1; 194 ± 39 µM at UGT1A8; 33 ± 9.8 µM on UGT1A10; 0.17 ± 0.01 µM on UGT1A9; 175 ± 25 µM at UGT2B7; 43 ± 7 µM on UGT1A7. Besides, the “ratio of (+)-DB[a,l]P-11-Gluc : (+)-DB[a,l]P-12-Gluc : (−)-DB[a,l]P-11-Gluc formation” value at UGT1A1 amounted to 52; at UGT1A10, 19. Besides, the kcat/Km is 102 ± 25 M⁻¹ s⁻¹ at UGT1A1 (setting [1]); 13.3 ± 2 M⁻¹ s⁻¹ at UGT1A8 (setting [1]); 158 ± 33.3 M⁻¹ s⁻¹ at UGT1A10 (setting [1]); 49670 ± 2430 M⁻¹ s⁻¹ at UGT1A9 (setting [1]); 6.33 ± 0.17 M⁻¹ s⁻¹ at UGT2B7 (setting [1]); 3.83 ± 1.83 M⁻¹ s⁻¹ on UGT1A7 (setting [1]). In addition, the “ratio of (+)-DB[a,l]P-11-Gluc : (−)-DB[a,l]P-11-Gluc formation” value is reported as 48 at UGT1A8, 30 at UGT1A9 and 67 at UGT1A7. For the same molecule, the “fold higher activity (kcat/KM) of UGT1A10 compared to UGTs 1A7 and 1A8” value on UGT1A10 (comparing kcat/KM values) is 12–72 fold. Further, the “fold higher activity (kcat/KM) of UGT1A9 than UGT1A1” value on UGT1A9 (comparing kcat/KM values) is “approximately 489 fold”.
